Experimental findings from patent US11873298B2, “Compounds and uses thereof” (JANSSEN PHARMACEUTICA NV, priority 2017, dated 2024) are described below.

The target in one assay is T1, SCD1 (Homo sapiens, UniProt O00767).
T1 construct: host or cells: S. cerevisiae ole1Δ strain (W303 pdr1Δ pdr3Δ background), plasmid pRS316 with TDH3 promoter and CYC1 terminator
T1 sequence (O00767 1-359): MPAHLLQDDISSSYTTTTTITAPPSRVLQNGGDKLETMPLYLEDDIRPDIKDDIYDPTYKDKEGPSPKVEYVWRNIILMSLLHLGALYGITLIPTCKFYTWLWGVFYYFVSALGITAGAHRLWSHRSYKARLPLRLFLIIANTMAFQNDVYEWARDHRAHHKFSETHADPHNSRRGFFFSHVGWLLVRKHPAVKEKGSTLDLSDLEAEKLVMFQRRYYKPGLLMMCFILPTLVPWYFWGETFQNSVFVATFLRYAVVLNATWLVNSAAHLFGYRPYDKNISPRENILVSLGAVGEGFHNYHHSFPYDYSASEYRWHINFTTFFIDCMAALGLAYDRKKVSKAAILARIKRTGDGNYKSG
Briefly: Growth inhibition of humanized yeast strain expressing SCD1 as sole desaturase. The class given is cell-based. The note with it: humanized yeast strain expressing SCD1. An outline of the steps: (§1)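 ole1Δ yeast (W303 pdr1Δ pdr3Δ background) carrying plasmid-borne Ole1, SCD1 or SCD5, grown in uracil-free media; cultures pre-grown in raffinose, seeded at 2× density 0.02 in galactose media with compound. Growth read as OD600 after 24 h at 30° C. for Ole1, 40 h for SCD1/SCD5.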

For a further assay, the target named is T2, Ole1 (Saccharomyces cerevisiae, UniProt P21147).
T2 construct: expressed in transfected cells; host or cells: S. cerevisiae ole1Δ strain (W303 pdr1Δ pdr3Δ background), plasmid pRS316 with TDH3 promoter and CYC1 terminator
T2 sequence (P21147 1-510): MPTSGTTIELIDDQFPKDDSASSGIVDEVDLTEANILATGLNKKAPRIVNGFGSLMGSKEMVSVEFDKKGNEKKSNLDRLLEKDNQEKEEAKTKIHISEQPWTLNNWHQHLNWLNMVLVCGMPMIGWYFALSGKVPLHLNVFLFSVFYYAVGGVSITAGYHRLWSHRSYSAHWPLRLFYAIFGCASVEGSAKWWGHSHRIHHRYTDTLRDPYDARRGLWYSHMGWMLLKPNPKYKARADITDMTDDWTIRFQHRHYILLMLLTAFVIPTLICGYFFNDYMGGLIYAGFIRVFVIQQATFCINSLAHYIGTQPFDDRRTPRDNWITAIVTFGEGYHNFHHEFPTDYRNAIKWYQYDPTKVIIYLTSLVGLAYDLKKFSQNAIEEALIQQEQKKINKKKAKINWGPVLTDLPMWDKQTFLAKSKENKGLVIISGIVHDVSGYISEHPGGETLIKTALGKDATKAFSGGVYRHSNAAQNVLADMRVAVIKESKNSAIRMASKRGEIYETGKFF
Briefly: Growth inhibition of yeast strain expressing Ole1 as sole desaturase. It is filed as cell-based. The note with it: yeast strain expressing Ole1 as sole desaturase. An outline of the steps:
as §1

For assay [1], the system named is yeast strains expressing the human α-synuclein. Briefly: Yeast α-synuclein toxicity rescue assay (OD600 growth). The note with it: 40 h; for EC50: read-out: α-Syn EC50; for Emax: read-out: α-Syn Emax.
Excerpt: The induced expression of α-synuclein and ApoE4 confers cytotoxicity, thus enabling the identification of compounds that can restore cell viability. This instantaneous/synchronous induction of α-synuclein and ApoE4 can be achieved due to the following expression control. In glucose-containing media, gene expression from the GAL1 promoter is ‘off’ and actively repressed by additional epigenetic factors. In raffinose, expression is ‘off’, but the promoter not actively repressed. Upon transition to galactose-containing media, the promoter is instantaneously turned ‘on’ to achieve robust and synchronous induction of α-synuclein or ApoE4 expression. This highly regulated induction provides a robust window for the determination of both efficacy (amplitude of protective effect) and potency (concentration of protective effect) of cytoprotective compounds.
Re-suspended compound stocks were subsequently arrayed into 384 well compound plates using automated pipetting. All other wells not receiving stock compound were filled with 10 μL of 100% DMSO using an automated plate filler (Multidrop Combi). An 11 point, 2-fold serial dilution was then performed using the robotic platform. Compound assay plates were covered with foil and stored at −20° C. until use.
Each strain was handled according to standard protocols and cultured in media composed of CSM (complete synthetic media), YNB (yeast nitrogenous base), and a 2% (w/v) carbon source (either glucose, raffinose, or galactose).
In a standard yeast assay, a single-use aliquot of cells was thawed on ice and diluted into CSM/glucose (5 mL). Cultures were grown for 8 hours at 30° C. This pre-growth enables the yeast to exit the thaw and begin to grow without expressing aSyn or ApoE4. After 8 hours, cell density (OD600) was determined and cultures diluted to an OD600 of 0.01 in CSM/raffinose for an overnight culture phase at 30° C. During this period, the active glucose repression of the GAL1 promoter was relieved; however, expression of the α-Syn/ApoE4 genes were not yet induced. After ˜16 hours of growth, cultures attain an OD600 of 0.4-0.8 and were ready to apply to assay plates containing compound.
Compound profiling assays were executed in clear-bottom 384 well plates. First, compound plates were thawed at room temperature for 45′, centrifuged at 1,000×g for 1 minute, and the foil removed. Clear 384 well assay plates were then filled with 15 μL of CSM/galactose. […] The pin tool was washed iteratively with both 50% DMSO and 100% ethanol between each assay plate. After delivering compound to each assay plate, the overnight CSM/raffinose aSyn or ApoE4 cultures were added at a 2X cell density (0.04 for aSyn and 0.08 for ApoE4) in CSM/galactose to achieve a final assay OD600 of 0.02 and 0.04 for aSyn and ApoE, respectively. The cultures (15 μL per well) were then dispensed to the compound -containing 384 well assay plates using an automated plate filler. Plates were incubated in a humidified 30° C. incubator for 40 or 24 hours for aSyn and ApoE4, respectively. The ODsoo of each assay plate was then read with a microplate reader (e.g., Perkin Elmer Envision).
The efficacy and potency of compounds were calculated according to the following. Raw data (OD600 values) were first background corrected to account for OD600 contributed by the plate and media itself. The efficacy (percent above DMSO, herein referred to as “Emax”) was calculated according to the equation: (Experimental well−DMSO control well)/(DMSO control well)*100. […] Normalized dose-response data was fit with a logistic regression curve using Spotfire (TIBCO), or similar curve-fitting software package. EC50 values were then reported along with EMax to provide both efficacy and potency measures for each analog and enable further compound design.
In another assay the target is T3, SCD5 (Homo sapiens, UniProt Q86SK9).
T3 construct: host or cells: S. cerevisiae ole1Δ strain (W303 pdr1Δ pdr3Δ background), plasmid pRS316 with TDH3 promoter and CYC1 terminator
T3 sequence (Q86SK9 1-330): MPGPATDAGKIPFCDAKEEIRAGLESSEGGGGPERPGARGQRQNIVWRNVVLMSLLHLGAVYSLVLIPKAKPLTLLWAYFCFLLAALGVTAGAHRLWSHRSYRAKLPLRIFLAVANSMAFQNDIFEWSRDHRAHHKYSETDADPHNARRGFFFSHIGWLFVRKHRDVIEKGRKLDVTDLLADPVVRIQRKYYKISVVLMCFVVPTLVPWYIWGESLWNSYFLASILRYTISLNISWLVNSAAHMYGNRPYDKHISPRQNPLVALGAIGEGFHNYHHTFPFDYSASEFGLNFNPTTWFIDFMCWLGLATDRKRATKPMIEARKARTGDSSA
Briefly: Growth inhibition of humanized yeast strain expressing SCD5 as sole desaturase. The class given is cell-based. The note with it: humanized yeast strain expressing SCD5. The method, boiled down:
as §1

Bounds are passed on as bounds.

Broadly, the IC50 is the concentration that inhibits the measured activity by half. Low readings indicate greater potency, high ones weaker potency. The term EC50 denotes the concentration needed to bring the measured effect to its halfway point. On to `Cn1c(=O)[nH]c2ccc(-c3noc(C4CCN(C(=O)C5CC(=O)N(c6ccccc6)C5)CC4)n3)cc21` (stereo not drawn) [Compound 134], for which, at SCD1, the IC50 was greater than 45 µM and the “SCD1 % Max Inhibition” value worked out at 107.77%. Further, at Ole1, the IC50 is greater than 45 µM and the “OLE1 % Max Inhibition” value turned out to be 93.94%. For the same molecule, in assay [1], the EC50 is 14 µM and the Emax came out at 357%. Also, at SCD5, the IC50 was greater than 45 µM and the “SCD5 % Max Inhibition” value turned out to be 98.55%.
Turning to `O=C(NCC(=O)N1CCC(c2nc(-c3ccc4c(c3)OC(F)(F)O4)no2)CC1)c1ccccc1` [Compound 109], at SCD1, the IC50 was greater than 45 µM and the “SCD1 % Max Inhibition” value came out at 84.36%. Also, at Ole1, the IC50 was greater than 45 µM and the “OLE1 % Max Inhibition” value was found to be 87.87%. For the same molecule, in assay [1], the EC50 stood at 3.04 µM and the Emax was found to be 35%. For the same molecule, at SCD5, the IC50 was greater than 45 µM and the “SCD5 % Max Inhibition” value is given as 89.75%.
As for `Cc1nn(C)c2cc(-c3noc(C4CCN(C(=O)CNC(=O)c5ccccc5)CC4)n3)ncc12` [Compound 114], at SCD1, the IC50 was greater than 45 µM and the “SCD1 % Max Inhibition” value was 74.54%. In addition, at Ole1, the IC50 was greater than 45 µM and the “OLE1 % Max Inhibition” value was determined as 90.17%. Besides, in assay [1], the EC50 stood at 17.3 µM and the Emax worked out at 373%. Also, on SCD5, the IC50 was greater than 45 µM and the “SCD5 % Max Inhibition” value came to 77.66%.
Take `CCOc1cnc(-c2noc(C3CCN(C(=O)CNC(=O)c4ccccc4)CC3)n2)cc1OC` [Compound 121]: at SCD1, the IC50 was greater than 45 µM and the “SCD1 % Max Inhibition” value is on record as 94.06%. Besides, at Ole1, the IC50 is greater than 45 µM and the “OLE1 % Max Inhibition” value was 111.12%. For the same molecule, in assay [1], the EC50 is 15.5 µM and the Emax turned out to be 388%. Further, at SCD5, the IC50 was greater than 45 µM and the “SCD5 % Max Inhibition” value is 98.38%.
On to `O=C(NCC(=O)N1CCC(c2nc(-c3ccc4nsnc4c3)no2)CC1)c1ccccc1` [Compound 104], for which, at SCD1, the IC50 was greater than 45 µM and the “SCD1 % Max Inhibition” value is 76.89%. For the same molecule, at Ole1, the IC50 is greater than 45 µM and the “OLE1 % Max Inhibition” value is recorded as 110.40%. Moreover, in assay [1], the EC50 is 1.87 µM and the Emax is 253%. Further, at SCD5, the IC50 was greater than 45 µM and the “SCD5 % Max Inhibition” value is 77.11%.
As to `COc1ccc(-c2noc(C3CCN(C(=O)CNC(=O)c4ccccc4OC)CC3)n2)cc1OC` [Compound 144], on SCD1, the IC50 is greater than 45 µM and the “SCD1 % Max Inhibition” value is recorded as 79.00%. On Ole1, the IC50 is greater than 45 µM and the “OLE1 % Max Inhibition” value is reported as 100.96%. In assay [1], the EC50 came out at 0.521 µM and the Emax worked out at 537%. Further, on SCD5, the IC50 is greater than 45 µM and the “SCD5 % Max Inhibition” value is 84.27%.
As to `CCOc1ccc(-c2noc(C3CCN(C(=O)CNC(=O)c4ccccc4)CC3)n2)cc1C#N` [compound 101], the IC50 against SCD1, against Ole1 and against SCD5 was greater than 45 µM throughout. For the same molecule, in assay [1], the EC50 was determined as 1.18 µM. For the same molecule, the Emax in assay [1] turned out to be 122%.
With `Cc1noc2cc(-c3noc(C4CCN(C(=O)CNC(=O)c5ccccc5)CC4)n3)ccc12` [Compound 135], on SCD1, the IC50 was greater than 45 µM and the “SCD1 % Max Inhibition” value turned out to be 92.42%. Besides, at Ole1, the IC50 is greater than 45 µM and the “OLE1 % Max Inhibition” value came to 99.53%. Further, in assay [1], the EC50 was found to be 0.593 µM and the Emax is 144%. On SCD5, the IC50 was greater than 45 µM and the “SCD5 % Max Inhibition” value amounted to 91.64%.
Take `COc1cccc(C(=O)NCC(=O)N2CCC(c3nc(-c4ccc5c(C)nn(C)c5c4)no3)CC2)n1` [Compound 154]: on SCD1, the IC50 was greater than 45 µM and the “SCD1 % Max Inhibition” value worked out at 68.90%. On Ole1, the IC50 was greater than 45 µM and the “OLE1 % Max Inhibition” value is on record as 1.20%. Moreover, in assay [1], the EC50 turned out to be 0.057 µM and the Emax is 410%. Further, at SCD5, the IC50 was greater than 45 µM and the “SCD5 % Max Inhibition” value came to 3.25%.
For `Cc1nn(C)c2cc(-c3noc(C4CCN(C(=O)C(CO)N5Cc6ccccc6C5=O)CC4)n3)ccc12` (stereo not drawn) [Compound 129], at SCD1, the IC50 is greater than 45 µM and the “SCD1 % Max Inhibition” value was 75.60%. Besides, on Ole1, the IC50 is greater than 45 µM and the “OLE1 % Max Inhibition” value is 3.25%. Also, in assay [1], the EC50 came to 0.047 µM and the Emax came out at 360%. In addition, on SCD5, the IC50 is greater than 45 µM and the “SCD5 % Max Inhibition” value is recorded as 93.05%.
`Cc1nn(C)c2cc(-c3noc(N4CCN(C(=O)CNC(=O)c5ccccc5)CC4)n3)ccc12` [compound 102]: the IC50 against SCD1, against Ole1 and on SCD5 was greater than 45 µM in each case. Moreover, the EC50 in assay [1] amounted to 0.284 µM. In assay [1], the Emax is 411%.
As to `Cc1nn(C)c2cc(-c3noc(C4CCN(C(=O)C5CC(=O)N(c6ccccc6)C5)CC4)n3)ccc12` (stereo not drawn) [compound 89], the IC50 against SCD1, at Ole1 and on SCD5 was greater than 45 µM throughout. Moreover, in assay [1], the EC50 amounted to 0.165 µM. The Emax in assay [1] worked out at 580%.
For `Cc1n[nH]c2cc(-c3noc(C4CCN(C(=O)CNC(=O)c5ccccc5)CC4)n3)ccc12` [compound 93], the IC50 against SCD1, on Ole1 and against SCD5 was greater than 45 µM throughout. The EC50 in assay [1] stood at 1.8 µM. In addition, the Emax in assay [1] is 626%.
For the molecule `COc1ccc(-c2noc(C3CCN(C(=O)CNC(=O)c4ccccn4)CC3)n2)cc1OC` [Compound 145], at SCD1, the IC50 is greater than 45 µM and the “SCD1 % Max Inhibition” value turned out to be 78.31%. On Ole1, the IC50 came to 15.8 µM and the “OLE1 % Max Inhibition” value worked out at 51.17%. For the same molecule, in assay [1], the EC50 amounted to 0.1 µM and the Emax was found to be 432%. At SCD5, the IC50 is greater than 45 µM and the “SCD5 % Max Inhibition” value worked out at 86.51%.
Turning to `CCOc1ccc(-c2noc(C3CCN(C(=O)CN4Cc5ccccc5C4=O)CC3)n2)cc1OC` [Compound 106], on SCD1, the IC50 is greater than 45 µM and the “SCD1 % Max Inhibition” value turned out to be 78.19%. For the same molecule, on Ole1, the IC50 is greater than 45 µM and the “OLE1 % Max Inhibition” value is listed as 35.35%. Moreover, in assay [1], the EC50 is 0.1 µM and the Emax came to 415%. At SCD5, the IC50 is greater than 45 µM and the “SCD5 % Max Inhibition” value is on record as 71.22%.
Take `COc1ccc(C(=O)NCC(=O)N2CCC(c3nc(-c4ccc5c(C)nn(C)c5c4)no3)CC2)nc1` [Compound 151]: at SCD1, the IC50 is greater than 45 µM and the “SCD1 % Max Inhibition” value was 75.63%. Moreover, at Ole1, the IC50 was greater than 45 µM and the “OLE1 % Max Inhibition” value came out at 2.67%. For the same molecule, in assay [1], the EC50 worked out at 0.045 µM and the Emax was 405%. On SCD5, the IC50 was greater than 45 µM and the “SCD5 % Max Inhibition” value is 20.68%.
As to `O=C(NCC(=O)N1CCC(c2nc(-c3ccc4cn[nH]c4c3)no2)CC1)c1ccccc1` [compound 88], the IC50 on SCD1 is 33.5 µM; on Ole1, greater than 45 µM; at SCD5, greater than 45 µM. Also, the EC50 in assay [1] came to 9.04 µM. The Emax in assay [1] was found to be 130%.
As to `Cc1nn(C)c2cc(-c3noc(C4CCN(C(=O)[C@H]5CC(=O)N(c6ccccc6)C5)CC4)n3)ccc12` [compound 90], the IC50 on SCD1, at Ole1 and against SCD5 was greater than 45 µM throughout. For the same molecule, the EC50 in assay [1] was 1.65 µM. Also, the Emax in assay [1] came out at 281%.
